By inhibition is commonly meant the share of the control response that was lost under treatment. By IC50 is commonly meant the concentration that gives 50% inhibition. What is called melting point is the temperature, or range, at which the solid turns liquid.

The target in series [1] is T1, human type X sPLA2 (Homo sapiens, UniProt O15496).
T1 construct: made in house; unpurified culture supernatant
T1 sequence (O15496 43-165): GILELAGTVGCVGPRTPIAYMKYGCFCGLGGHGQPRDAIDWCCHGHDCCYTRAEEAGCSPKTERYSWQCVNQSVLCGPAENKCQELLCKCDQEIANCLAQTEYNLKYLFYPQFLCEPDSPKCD
The series is described as follows: Type X sPLA2-induced fatty acid release from isolated human lipoproteins (LDL). The format is biochemical. Conditions: read-out: % of Inhibition (10 μM). The method, then:
Examination 17: Effects of sPLA2 Inhibitors on Type X sPLA2-Induced Fatty Acid Release From Isolated Human Lipoproteins.
LDL was isolated from human plasma by sequential ultracentrifugation method (Havel et al. J. Clin. Invest. 34,1345–1353 (1955)). LDL (0.5 mg/mL) was incubated with 10 nmol/L of human type X sPLA2 in the assay mixture containing 12.5 mmol/L Tris-HCl buffer (pH 8.0), 125 mg/L bovine serum albumin and 1 mmol/L calcium chloride for 4 hr at 37° C. Fatty acids released from lipoprotein were extracted by Dole's method (Dole et al. J. Biol. Chem. 235, 2595–2599 (1960)), labeled with 9-anthryldiazomethane according to a known method (Hanasaki et al., J. Biol. Chem. 274, 34203–34211 (1999)) and measured by detecting the fluorescence of labeled fatty acids using reverse-phase high performance chromatography (LiChroCART 125-4 Superspher 100 RP-18 column (Merck). For the inhibition assay of drugs, sPLA2 inhibitors (final concentration of 10 μM) were added at almost the same time as the addition of sPLA2 into the reaction solution. The results are presented in Table 10.

In series [2] the target is T1, human type X sPLA2. Briefly: Human type X sPLA2-induced oleic acid release in human colon carcinoma HT-29 cells. The format is cell-based. Conditions: compound 10 μM, 100 nM human type X sPLA2, 30 min, percentage of the increase by type X sPLA2 (no treatment group = 100). Here is the method:
Examination 15: Effects of sPLA2 Inhibitors on Human Type X sPLA2-Induced Oleic Acid Release in Human Colon Calcinoma Cell Lines, HT-29 Cells.
Human colon calcinoma cell lines, HT-29 cells (obtained from ATCC) were cultured in DMEM supplemented with 10% fetal calf serum. The cells were washed by phosphate-buffered saline (PBS), detached from culture plates by treatment with trypsin/EDTA solution and further washed by PBS. The resulting cells were resuspended in Hanks' buffered saline containing 0.1% bovine serum albumin (BSA) at a density of 12.5×10^6 cells/mL. Aliquots of the cell suspension (0.4 ml) were transferred into polypropylene tubes and test compounds dissolved in DMSO solution (final concentration; 10 μM) were added. After preincubation for 10 min at 37° C., 100 nM purified human type X sPLA2 enzyme (Hanasaki et al J. Biol. Chem. (1999) 274, 34203–34211) was added (final volume of 0.5 mL). After incubation for 30 min at 37° C., the reaction was stopped by the addition of 2 ml Dole's reagent (heptane:2-propanol:1M H2SO4=10:40:1, v/v/v).

For series [3], the target named is T2, human type II enzyme (sPLA2) (Homo sapiens, UniProt P14555).
T2 sequence (P14555 21-144): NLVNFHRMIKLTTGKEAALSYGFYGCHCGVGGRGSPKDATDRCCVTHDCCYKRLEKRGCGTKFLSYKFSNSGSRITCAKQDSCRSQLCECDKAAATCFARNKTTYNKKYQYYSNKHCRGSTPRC
Briefly: Inhibition test of human secretory phospholipase A2, chromogenic assay, type II enzyme. The format is biochemical.

Series [4] concerns the target T1, human type X sPLA2. The series is described as follows: Type X sPLA2-induced PGE2 production in human colon carcinoma HT-29 cells. The format is cell-based. As to conditions: compound 10 μM; TNF-α-treated HT-29 cells; 100 nM human type X sPLA2, 3 h; percentage of PGE2 produced by type X sPLA2 (no treatment group = 100). The method, then:
Examination 16: Effects of sPLA2 Inhibitors on Type X sPLA2-Induced PGE2 Production in Human Colon Carcinoma Cell Lines, HT-29 Cells.
HT-29 cells were seeded into 24-well plates at a density of 2.5×10^5 cells/well. After incubation for 24 h, the cells were washed three times with PBS and incubated with 30 ng/mL of recombinant human tumor necrosis factor-α (R&D Systems, Inc.) in DMEM medium supplemented with 10% fetal bovine serum for 18 h at 37° C. After washing with PBS, the cells were preincubated with or without test compounds (at a final concentration of 10 μM; dissolved in DMSO) in Hanks' buffered saline containing 0.1% BSA for 10 min at 37° C., and then stimulated with 100 nM purified human type X sPLA2 enzyme in a final volume of 0.5 mL. After incubation for 3 h at 37° C, the culture supernatant was collected following the centrifugation for the removal of floating cells, and its PGE2 content was quantified with an enzyme-immunoassay kit (Cayman Chemicals Co.). From each data, the value in the absence of type X sPLA2 was subtracted. The amount of PGE2 in the presence of each test compound was expressed as the percentage of the PGE2 content produced by the addition of type X sPLA2 enzyme.

Series [5] concerns the target human type I enzyme (sPLA2) (Homo sapiens, UniProt P04054). The series is described as follows: Inhibition test of human secretory phospholipase A2, chromogenic assay, type I enzyme. The format is biochemical.
Series [6] concerns the target T1, human type X sPLA2. The series is described as follows: Inhibition test of human secretory phospholipase A2, chromogenic assay, type X enzyme. The format is biochemical.
A further series concerns the target T3, human type V sPLA2 (Homo sapiens, UniProt P39877).
T3 construct: made in house; unpurified culture supernatant
T3 sequence (P39877 21-138): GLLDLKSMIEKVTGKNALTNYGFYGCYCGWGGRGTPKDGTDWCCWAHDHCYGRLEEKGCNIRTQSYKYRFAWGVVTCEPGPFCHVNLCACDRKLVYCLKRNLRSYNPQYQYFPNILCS
The series is described as follows: Inhibition test of human secretory phospholipase A2, chromogenic assay, type V enzyme. The format is biochemical.

The mark [7] stands for this setting: compound 10 μM, human LDL 0.5 mg/mL, 10 nmol/L human type X sPLA2, 4 hr at 37° C.

Like-named read-outs stand apart in the source and are kept apart here. Where only a bound is given, the exact number is not on record here.

Chain of human type I enzyme (sPLA2) (P04054 23-148): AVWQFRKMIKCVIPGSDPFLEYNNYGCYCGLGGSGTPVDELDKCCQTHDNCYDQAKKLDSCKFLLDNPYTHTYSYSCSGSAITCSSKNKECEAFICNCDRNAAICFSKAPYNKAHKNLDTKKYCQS

Consider `CC(C)Cc1c(C(=O)C(N)=O)c2c(OCC(=O)NS(=O)(=O)C(F)(F)F)cccc2n1Cc1ccccc1` [Compound I-30], for which, at human type X sPLA2 [1] (setting [7]), the inhibition at 10 µM came out at 97.5%.
As to `CC(C)Cc1c(C(=O)C(N)=O)c2c(OCC(=O)O)cccc2n1Cc1ccccc1` [Compound I-10], at human type X sPLA2 [2], the Oleic acid release was −0.2 ± 5.7 %. The IC50 in series [3] (human sPLA2 type II, chromogenic assay, 30 min, read-out: IC50 type II) is > 1000 nM; in series [5] (recombinant human sPLA2 type I, chromogenic assay, 30 min, read-out: IC50 type I) it was > 700 nM; against human type X sPLA2 [6], 13 nM; at human type V sPLA2 (human sPLA2 type V (CHO supernatant), chromogenic assay, 45 min, read-out: IC50 type V), > 1000 nM. Also, the PGE2 production at human type X sPLA2 [4] is recorded as −12.7 ± 7.9 %. Further, on human type X sPLA2 [1] (setting [7]), the inhibition at 10 µM worked out at 91.3%.
`CC(C)Cc1c(C(=O)C(N)=O)c2c(OCC(=O)NS(=O)(=O)c3ccccc3)cccc2n1Cc1ccc(F)cc1` [Compound I-22]: the melting point was 172 to 173 °C. Besides, in series [3], the IC50 was > 1000 nM. The IC50 in series [5] was > 700 nM. On human type X sPLA2 [6], this molecule registered an IC50 of 8 nM. The inhibition at 10 µM at human type X sPLA2 [1] came out at 91.7%. The IC50 against human type V sPLA2 is > 1000 nM.

These data come from patent publication US7026318B2 (Shionogi & Co., Ltd., priority 2000, dated 2006).
